Experimental data from patent publication US20040068006A1, “Method for preventing acute renal failure” (Critical Therapeutics, Inc., priority 2001, published 2004).

Tested on: sepsis-induced acute renal failure
Test: Cecal ligation puncture (CLP) sepsis-induced acute renal failure in aged mice
Assay type: in vivo, mouse
Details: for HPLC creatinine: mean±SE
Experimental: Animal care followed NIH criteria for the care and use of laboratory animals in research. Young (7-8 weeks) and aged (42-44 weeks) male C57BL/6 mice [National Institutes of Health (NIH), Frederick, Md.] had free access to water and chow (NIH-07) Rodent chow, Zeigler Bros., Gardners, Pa.) before and after surgery.
Aged mice were anesthetized with 100 mg/kg ketamine, 10 mg/kg xylazine, and 1 mg/kg acepromazine IM. After laparotomy, a 5-0 silk ligature was placed 5 mm from the cecal tip. The cecum was punctured twice with a 21-gauge needle and gently squeezed to express a 1 mm column of fecal material. In sham operated animals, the cecum was located, but neither ligated nor punctured. The abdominal incision was closed in two layers with 6-0 nylon sutures. After surgery, one ml of pre-warmed normal saline was given IP. All animals received a broad spectrum antibiotic (imipenem/cilastatin; 25 mg/kg SC), then 1.5 ml of 3/4 saline was administered at 6 and 18 hr after surgery by SC injection. At the time of sacrifice, blood was collected from abdominal aorta for measurement of blood chemistries. The kidneys were harvested for histological and mechanistic studies.
Survival after surgery was assessed every 6 hr within the first 48 hr and then every 8 hr for 4 days. Antibiotic injection and fluid resuscitation were started 6 hr after CLP by SC injection, and then repeated every 12 hr for 4 days.
Animals received 0.4 ml of Ringers lactate (RL) [130 mM Na+, 4 mM K+, 2.7 mM Ca+, 109 mM Cl^−, and 28 mM lactate] or a similar volume of freshly-made Ringers ethyl pyruvate (EP) where EP (Sigma) was substituted for sodium lactate. A single dose was injected IP at 0, 6, or 12 hr after CLP surgery.
Serum levels of blood urea nitrogen (BUN), aspartate transaminase (AST), alanine transaminase (ALT), amylase, creatine kinase (CK) and lactate dehydrogenase (LDH) were measured using an autoanalyzer (Hitachi 917, Boehringer Mannheim, Indianapolis, MN). Serum creatinine were measured by a picric acid-based colorimetric kinetic autoanalyzer (Astra 8 autoanalyzer; Beckman Instruments, Fullerton, Calif.). Serum […] was also measured by high-performance liquid chromatography (HPLC) Johns et al., B Biomed. Sci. Appl. 759:343 (2001)). Acetonitrile was added to serum, centrifuged, and the supernatant fraction was dried, resuspended in 5 mM sodium acetate pH 5.1, and chromatrographed isocratically on a PRP-X200 cation exchange column (Hamilton, Reno Nev.) and detected by UV absorbance at 234 nm (Agilent Technologies, Palo Alto, Calif.).
10% Formalin-fixed and paraffin-embedded kidney sections were stained with periodic acid-Schiff reagent (PAS) or naphthol AS-D chloroacetate esterase (Sigma; St. Louis, Mo.). Histological changes in the cortex and in the outer stripe of the outer medulla (OSOM) were assessed by quantitative measurements of tissue damage. Tubular damage was defined as tubular epithelial swelling, loss of brush border, vacuolar degeneration, necrotic tubules, cast formation, and desquamation. The degree of kidney damage was estimated at 400× magnification using 5 randomly selected fields for each animal by the following criteria: 0, normal; 1, areas of damage <25% of tubules; 2, damage involving 25-50% of tubules, 3, damage involving 50 to 75% of tubules; 4, 75-100% of the area being affected.
All data are expressed as means±SE. Differences between groups were examined for statistical significance by ANOVA with a multiple comparison correction (StatView 4.5, Berkeley, Calif.; or SigmaStat 2.0, SPSS, San Rafael, Calif.). A P value <0.05 was accepted as statistically significant.

CCOC(=O)C(C)=O [EP, ethyl pyruvate]
tubular damage in cortex and OSOM (EP at 0, 6 or 12 hr after CLP, measured at 24 hr): significantly reduced the tubular damage | HPLC creatinine (higher dose (40 mg/kg) EP, single IP dose delayed until 6 hr after surgery): 0.13 ± 0.01 mg/dL | HPLC creatinine (higher dose (40 mg/kg) EP, single IP dose delayed until 12 hr after surgery): 0.17 ± 0.03 mg/dL | HPLC creatinine (single IP dose 8 mg/kg EP after CLP surgery (0 hr), RL vehicle 0.33±0.07 mg/dl): 0.17 ± 0.02 mg/dL | HPLC creatinine (single IP dose 40 mg/kg EP after CLP surgery (0 hr), RL vehicle 0.33±0.07 mg/dl): 0.14 ± 0.02 mg/dL | renal injury as measured by BUN or HPLC creatinine (single dose of either 8 or 40 mg/kg EP after surgery, vs. RL): significantly prevented the renal injury | acute renal failure (summary statement referring to Example 1): inhibits acute renal failure | therapeutic window for sepsis-induced acute renal failure (treatment start after CLP surgery): ≥ 12 h | amount of protection for tubular injury score (without much change with delayed treatment (up to 12 hr)): 60-80%
